In patent US10143691B2, “Pathogenic control of apoptosis” (CSIR, priority 2014, dated 2018):
Entries after “also recorded” stand apart in the source; their conditions may differ.

How the values were obtained:
hnRNP-K = test: Immunofluorescence of hnRNP-K cellular location in Ghost(3) cells; assay type: cell-based
Method: (§1) For each experiment, Ghost(3) cells or IPSC-derived primary macrophages were infected or treated with 500 nM Doxorubicin on coverslips, fixed for 10 mins in fresh 4% paraformaldehyde at room temperature, then washed 3 times in PBS and permeabilised for 10 mins in ice-cold methanol at […]. Coverslips were washed once in PBS and incubated in blocking buffer (5% goat serum, 0.3% TritonX100 in PBS) for 60 mins at room temperature. Cells were incubated in primary antibody solution (1% BSA, 0.3% Triton X100 in PBS) overnight at 4° C. Double strand breaks were detected using rabbit polyclonal anti-phosphohistone H2A.X Ser139 (Cell Signaling). Activated ATM was detected using rabbit monoclonal anti-phosphoATM Ser1981 (Cell Signaling). The ability of p53 to regulate apoptosis was detected using rabbit polyclonal antiphosphop53 Ser46 (Cell Signaling). Viral p24 was detected using mouse monoclonal anti-HIV1p24 (AIDS Research and Reference Reagent Program, Division of AIDS, NIAID, NIH). HuR was detected using mouse monoclonal anti-HuR 3A2 (Santa Cruz Biotechnology). hnRNPK was detected using goat polyclonal anti-hnRNPK P20 (Santa Cruz Biotechnology). Coverslips were washed 3 times (5 mins each on an orbital shaker) with wash buffer (0.05% Tween20 in PBS), followed by incubation with secondary antibodies conjugated to either Atto550 or Atto565 or Atto647 for 60 mins at room temperature. Coverslips were washed 3 times (5 mins each on an orbital shaker) with wash buffer (0.05% Tween20 in PBS). Coverslips were incubated in equilibration buffer (0.4% glucose, 2×SCC) for 5 mins and counter stained with 1 mg/ml DAPI (4′,6-diamidino-2-phenylindole; Life Technologies). Coverslips were mounted in glox buffer (3.7 mg/ml glucose oxidase, 1 U catalase) and imaged.
For each experiment, cells were infected or treated with drugs on coverslips, fixed for 10 mins in fresh 4% paraformaldehyde at room temperature, then washed 3 times in PBS and permeabilised for 10 mins in ice-cold methanol at −20° C. Coverslips were washed once in PBS and incubated in blocking buffer (5% goat serum, 0.3% Triton-X100 in PBS) for 60 mins at room temperature. Cells were incubated in primary antibody solution (1% BSA, 0.3% Triton X-100 in PBS) overnight at 4° C. Double strand breaks were detected using rabbit polyclonal anti-phospho-histone H2A.X Ser139 (Cell Signaling). Activated ATM was detected using rabbit monoclonal anti-phospho-ATM Ser1981 (Cell Signaling). The ability of p53 to regulate apoptosis was detected using rabbit polyclonal anti-phospho-p53 Ser46 (Cell Signaling). Viral p24 was detected using mouse monoclonal anti-HIV-1-p24 (AIDS Research and Reference Reagent Program, Division of AIDS, NIAID, NIH). HuR was detected using mouse monoclonal anti-HuR 3A2 (Santa Cruz Biotechnology). hnRNP-K was detected using goat polyclonal anti-hnRNP-K P-20 (Santa Cruz Biotechnology). Coverslips were washed 3 times (5 mins each on an orbital shaker) with wash buffer (0.05% Tween-20 in PBS), followed by incubation with secondary antibodies conjugated to either Atto-550 or Atto-565 or Atto-647 for 60 mins at room temperature. Coverslips were washed 3 times (5 mins each on an orbital shaker) with wash buffer (0.05% Tween-20 in PBS). Coverslips were incubated in equilibration buffer (0.4% glucose, 2×SCC) for 5 mins and counter stained with 1 mg/ml DAPI (4′,6-diamidino-2-phenylindole; Life Technologies). Coverslips were mounted in glox buffer (3.7 mg/ml glucose oxidase, 1 U catalase) and imaged.

H2A.XpSer139 = test: Immunofluorescence staining of double strand breaks (H2A.XpSer139); assay type: cell-based
Method: as §1
For each experiment, cells were infected or treated with drugs on coverslips, fixed for 10 mins in fresh 4% paraformaldehyde at room temperature, then washed 3 times in PBS and permeabilised for 10 mins in ice-cold methanol at −20° C. Coverslips were washed once in PBS and incubated in blocking buffer (5% goat serum, 0.3% Triton-X100 in PBS) for 60 mins at room temperature. […] Double strand breaks were detected using rabbit polyclonal anti-phospho-histone H2A.X Ser139 (Cell Signaling). Activated ATM was detected using rabbit monoclonal anti-phospho-ATM Ser1981 (Cell Signaling). The ability of p53 to regulate apoptosis was detected using rabbit polyclonal anti-phospho-p53 Ser46 (Cell Signaling). Viral p24 was detected using mouse monoclonal anti-HIV-1-p24 (AIDS Research and Reference Reagent Program, Division of AIDS, NIAID, NIH). HuR was detected using mouse monoclonal anti-HuR 3A2 (Santa Cruz Biotechnology). hnRNP-K was detected using goat polyclonal anti-hnRNP-K P-20 (Santa Cruz Biotechnology). […]

## COc1cccc2c1C(=O)c1c(O)c3c(c(O)c1C2=O)C[C@@](O)(C(=O)CO)C[C@@H]3O[C@H]1C[C@H](N)[C@H](O)[C@H](C)O1 [Doxorubicin]
hnRNP-K; Ghost(3) cells, drug only, no HIV infection
  cellular location of hnRNP-K: nuclear hnRNP-K within 2 hours; also recorded: detected in the nucleus of Doxorubicin-treated cells between 2 and 4 hours post-treatment; also recorded: nuclear hnRNPK within 2 hours
hnRNP-K; cells concurrently infected and treated with Maraviroc, Tenofovir or Raltegravir, Doxorubicin added afterwards
  cellular location of hnRNP-K: hnRNPK localized to the nucleus; also recorded: nuclear hnRNPK within 3 hours of chemical-induced DNA damage
H2A.XpSer139; Ghost(3) cells infected with HIV-1 24 hours prior to Doxorubicin treatment
  DSBs (H2A.XpSer139 staining): numerous DSBs
H2A.XpSer139; Ghost(3) cells infected with HIV-1 after exposure to Doxorubicin
  DSBs (H2A.XpSer139 staining): extensive H2A.XpSer139 staining
H2A.XpSer139; uninfected Ghost(3) cells, lethal dose of Doxorubicin (500 nM)
  H2A.X (pSer139) staining of DSBs: extensive H2A.X staining within 8 hours of treatment; also recorded: extensive H2A.XpSer139 staining
